Data published in patent publication US10758534B2 (Vertex Pharmaceuticals Incorporated, priority 2014, dated 2020).

target: T1, F508del (Homo sapiens, UniProt P13569, DEL508-508); test: Protocol 2: FRET membrane potential optical assay (VIPR), identification of correction compounds; format: cell-based; details: F508del CFTR modulator activity; compounds of Table 1; read-out: EC30
T1 construct: expressed in transfected cells
Summary of the method: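 Mouse NIH3T3 cells, stable F508del; cpd 16 hrs, 37° C., serum-free; pos ctrl 27° C. 16 hrs. Rinse in Krebs Ringers, dye load, then add 10 μM forskolin + 20 μM genistein with Cl^−-free (gluconate) medium; depolarization by FRET voltage dyes.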

T1 sequence (P13569 with tags, fused parts or gaps DEL508-508): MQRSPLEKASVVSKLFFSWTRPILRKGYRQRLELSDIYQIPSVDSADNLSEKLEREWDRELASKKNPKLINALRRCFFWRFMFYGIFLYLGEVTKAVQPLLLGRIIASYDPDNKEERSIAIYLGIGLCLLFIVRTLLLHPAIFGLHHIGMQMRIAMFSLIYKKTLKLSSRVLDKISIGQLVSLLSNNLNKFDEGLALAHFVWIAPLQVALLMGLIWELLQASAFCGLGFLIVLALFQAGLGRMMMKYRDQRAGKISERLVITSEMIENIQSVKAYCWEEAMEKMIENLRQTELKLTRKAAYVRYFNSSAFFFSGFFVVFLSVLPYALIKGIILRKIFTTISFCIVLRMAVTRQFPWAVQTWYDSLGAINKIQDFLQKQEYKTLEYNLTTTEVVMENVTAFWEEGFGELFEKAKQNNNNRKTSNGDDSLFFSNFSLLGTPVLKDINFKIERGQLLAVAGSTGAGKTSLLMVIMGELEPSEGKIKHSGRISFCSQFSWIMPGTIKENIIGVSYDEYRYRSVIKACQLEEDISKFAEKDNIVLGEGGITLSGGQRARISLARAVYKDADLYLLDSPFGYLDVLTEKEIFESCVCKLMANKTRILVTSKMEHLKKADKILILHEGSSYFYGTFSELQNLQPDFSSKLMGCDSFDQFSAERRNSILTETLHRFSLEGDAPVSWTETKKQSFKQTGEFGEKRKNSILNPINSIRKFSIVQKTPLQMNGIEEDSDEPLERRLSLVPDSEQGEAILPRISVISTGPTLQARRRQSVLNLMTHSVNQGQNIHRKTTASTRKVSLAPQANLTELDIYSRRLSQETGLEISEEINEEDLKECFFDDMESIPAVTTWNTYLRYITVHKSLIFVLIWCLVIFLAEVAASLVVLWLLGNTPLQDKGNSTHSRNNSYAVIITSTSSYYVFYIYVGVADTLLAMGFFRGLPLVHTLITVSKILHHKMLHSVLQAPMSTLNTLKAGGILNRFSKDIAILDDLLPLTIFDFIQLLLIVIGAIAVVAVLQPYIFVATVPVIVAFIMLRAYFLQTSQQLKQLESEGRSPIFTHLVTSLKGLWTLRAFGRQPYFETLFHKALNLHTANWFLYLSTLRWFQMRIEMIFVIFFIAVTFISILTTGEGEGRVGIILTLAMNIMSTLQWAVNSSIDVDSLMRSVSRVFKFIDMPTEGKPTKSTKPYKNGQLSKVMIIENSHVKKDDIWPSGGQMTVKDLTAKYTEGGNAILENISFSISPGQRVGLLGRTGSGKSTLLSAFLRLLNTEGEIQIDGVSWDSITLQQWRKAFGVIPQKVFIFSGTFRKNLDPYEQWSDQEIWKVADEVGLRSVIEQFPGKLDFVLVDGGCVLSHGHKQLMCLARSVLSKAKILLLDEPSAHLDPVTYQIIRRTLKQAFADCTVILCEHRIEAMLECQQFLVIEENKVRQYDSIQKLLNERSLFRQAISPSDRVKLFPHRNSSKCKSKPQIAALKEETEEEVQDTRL

Row | Compound | EC30
1 | C[C@@H]1CN(c2nc(-c3ccc(F)cc3)ccc2C(=O)NS(=O)(=O)c2cccnc2N)C(C)(C)C1 [Compound 2435, N-[(2-amino-3-pyridyl)sulfonyl]-6-(4-fluorophenyl)-2-[(4S)-2,2,4-trimethylpyrrolidin-1-yl]pyridine-3-carboxamide] | < 3 µM
2 | CC1CN(c2ncc(-c3ccc(C4(CO)CC4)cc3)cc2C(=O)NS(=O)(=O)c2cccc(N)n2)C(C)(C)C1 (stereo not shown) [Compound 2112, N-[(6-amino-2-pyridyl)sulfonyl]-5-[4-[1-(hydroxymethyl)cyclopropyl]phenyl]-2-(2,2,4-trimethylpyrrolidin-1-yl)pyridine-3-carboxamide] | 3 to 10 µM
3 | COc1ccc(CNc2cccc(S(=O)(=O)NC(=O)c3cccnc3N3CC(C)CC3(C)C)n2)cc1OC (stereo not shown) [Compound 2662, N—[[6-[(3,4-dimethoxyphenyl)methylamino]-2-pyridyl]sulfonyl]-2-(2,2,4-trimethylpyrrolidin-1-yl)pyridine-3-carboxamide] | 3 to 10 µM
4 | COc1ccc(-c2ccc(C(=O)NS(=O)(=O)c3cccnc3N)c(N3C[C@@H](C)CC3(C)C)n2)c(C)c1C [Compound 2450, N-[(2-amino-3-pyridyl)sulfonyl]-6-(4-methoxy-2,3-dimethyl-phenyl)-2-[(4S)-2,2,4-trimethylpyrrolidin-1-yl]pyridine-3-carboxamide] | < 3 µM
5 | CC1CN(c2ncc(/C=C/C3CCCCC3)cc2C(=O)NS(=O)(=O)c2cccc(N)n2)C(C)(C)C1 (stereo not shown) [Compound 2063, N-[(6-amino-2-pyridyl)sulfonyl]-5-[(E)-2-cyclohexylvinyl]-2-(2,2,4-trimethylpyrrolidin-1-yl)pyridine-3-carboxamide] | < 3 µM
6 | C[C@@H]1CN(c2nc(-c3cccc(F)c3F)ccc2C(=O)NS(=O)(=O)c2cccnc2N)C(C)(C)C1 [Compound 2291, N-[(2-amino-3-pyridyl)sulfonyl]-6-(2,3-difluorophenyl)-2-[(4S)-2,2,4-trimethylpyrrolidin-1-yl]pyridine-3-carboxamide] | < 3 µM
7 | COc1cc(CO)cc(-c2ccc(C(=O)NS(=O)(=O)c3cccnc3N)c(N3C[C@@H](C)CC3(C)C)n2)c1 [Compound 2065, N-[(2-amino-3-pyridyl)sulfonyl]-6-[3-(hydroxymethyl)-5-methoxy-phenyl]-2-[(4S)-2,2,4-trimethylpyrrolidin-1-yl]pyridine-3-carboxamide] | < 3 µM
8 | CC1CN(c2ncccc2C(=O)NS(=O)(=O)c2cccc(OCc3ccc(C(F)(F)F)cc3)n2)C(C)(C)C1 (stereo not shown) [Compound 2618, N—[[6-[[4-(trifluoromethyl)phenyl]methoxy]-2-pyridyl]sulfonyl]-2-(2,2,4-trimethylpyrrolidin-1-yl)pyridine-3-carboxamide] | < 3 µM
9 | COC(=O)N1CCN(c2cccc(S(=O)(=O)NC(=O)c3cccnc3N3CC(C)CC3(C)C)n2)CC1 (stereo not shown) [Compound 2506, methyl 4-[6-[[2-(2,2,4-trimethylpyrrolidin-1-yl)pyridine-3-carbonyl]sulfamoyl]-2-pyridyl]piperazine-1-carboxylate] | 3 to 10 µM
10 | CC1CN(c2ncccc2C(=O)NS(=O)(=O)c2cccc(OCC3CCOC3)n2)C(C)(C)C1 (stereo not shown) [Compound 2396, N—[[6-(tetrahydrofuran-3-ylmethoxy)-2-pyridyl]sulfonyl]-2-(2,2,4-trimethylpyrrolidin-1-yl)pyridine-3-carboxamide] | 3 to 10 µM
11 | Cc1ccc(O)c(-c2ccc(C(=O)NS(=O)(=O)c3cccnc3N)c(N3C[C@@H](C)CC3(C)C)n2)c1 [Compound 2426, N-[(2-amino-3-pyridyl)sulfonyl]-6-(2-hydroxy-5-methyl-phenyl)-2-[(4S)-2,2,4-trimethylpyrrolidin-1-yl]pyridine-3-carboxamide] | < 3 µM

same assay, conditions: Table 3; compounds of Table 1 as modulators of CFTR activity; protocol not stated

Row | Compound | EC30
12 | CC1CN(c2nc(-c3cccc(OC(C)C)n3)ccc2C(=O)NS(=O)(=O)c2cccc(N)n2)C(C)(C)C1 (stereo not shown) [Compound 708, N-[(6-amino-2-pyridyl)sulfonyl]-6-(6-isopropoxy-2-pyridyl)-2-(2,2,4-trimethylpyrrolidin-1-yl)pyridine-3-carboxamide] | +++ (“+++” means <3 uM)
13 | Cc1cc(C)c(Cn2nc(C(C)(C)C)cc2C(=O)NS(=O)(=O)c2cccc(N(C)C)c2C)c(C)c1 [Compound 104, 5-tert-butyl-N-[3-(dimethylamino)-2-methyl-phenyl]sulfonyl-2-[(2,4,6-trimethylphenyl)methyl]pyrazole-3-carboxamide] | +++ (“+++” means <3 uM)
14 | CC(C)COc1ccc(-c2ccc(C(=O)NS(=O)(=O)c3cccc(N)n3)c(N3[C@H](C)CC[C@@H]3C)n2)cn1 [Compound 544, N-[(6-amino-2-pyridyl)sulfonyl]-2-[(2S,5R)-2,5-dimethylpyrrolidin-1-yl]-6-(6-isobutoxy-3-pyridyl)pyridine-3-carboxamide] | +++ (“+++” means <3 uM)
15 | COc1ccccc1-c1cc(C(=O)NS(=O)(=O)c2ccccc2)n(Cc2c(C)cccc2C)n1 [Compound 347, N-(benzenesulfonyl)-2-[(2,6-dimethylphenyl)methyl]-5-(2-methoxyphenyl)pyrazole-3-carboxamide] | +++ (“+++” means <3 uM)
16 | CC(C)COc1cc(F)cc(-c2ccc(C(=O)NS(=O)(=O)c3cccc(N)n3)c(OCC3CCO3)n2)c1 (stereo not shown) [Compound 640, N-[(6-amino-2-pyridyl)sulfonyl]-6-(3-fluoro-5-isobutoxy-phenyl)-2-(oxetan-2-ylmethoxy)pyridine-3-carboxamide] | ++ (“++” means between 3 uM and 10 uM)
17 | COCCCc1ccc(C(=O)NS(=O)(=O)c2cccc(N)n2)c(Oc2c(C)cc(C)cc2C)n1 [Compound 791, N-[(6-amino-2-pyridyl)sulfonyl]-6-(3-methoxypropyl)-2-(2,4,6-trimethylphenoxy)pyridine-3-carboxamide] | ++ (“++” means between 3 uM and 10 uM)
18 | CC(C)CN(C)c1ccc(-c2ccc(C(=O)NS(=O)(=O)c3cccc(N)n3)c(N3CC(C)CC3(C)C)n2)cn1 (stereo not shown) [Compound 412, N-[(6-amino-2-pyridyl)sulfonyl]-6-[6-[isobutyl(methyl)amino]-3-pyridyl]-2-(2,2,4-trimethylpyrrolidin-1-yl)pyridine-3-carboxamide] | +++ (“+++” means <3 uM)
19 | Cc1cc(C)c(Oc2nc(C3CCC(F)(F)CC3)ccc2C(=O)NS(=O)(=O)c2cccc(N)n2)c(C)c1 [Compound 783, N-[(6-amino-2-pyridyl)sulfonyl]-6-(4,4-difluorocyclohexyl)-2-(2,4,6-trimethylphenoxy)pyridine-3-carboxamide] | +++ (“+++” means <3 uM)
20 | CC(C)(C)c1cc(C(=O)NS(=O)(=O)c2cccc(N)c2)n(Cc2c(Cl)cc(Cl)cc2Cl)n1 [Compound 303, N-(3-aminophenyl)sulfonyl-5-tert-butyl-2-[(2,4,6-trichlorophenyl)methyl]pyrazole-3-carboxamide] | +++ (“+++” means <3 uM)
21 | Cc1ccc(-c2nc3c(cc2C(=O)NS(=O)(=O)c2nccnc2N)CCCC3(C)C)cc1 [Compound 707, N-(3-aminopyrazin-2-yl)sulfonyl-8,8-dimethyl-2-(p-tolyl)-6,7-dihydro-5H-quinoline-3-carboxamide] | + (“+” means greater than 10 uM)
22 | Cc1cccc(C)c1Cn1nc(CCC(C)(C)C)cc1C(=O)NS(=O)(=O)c1cccc(N)c1 [Compound 323, N-(3-aminophenyl)sulfonyl-5-(3,3-dimethylbutyl)-2-[(2,6-dimethylphenyl)methyl]pyrazole-3-carboxamide] | +++ (“+++” means <3 uM)
